Laboratory results from patent publication US8729116B2, “Triazole compound having pesticidal activities” (Kumiai Chemical Industry Co., Ltd., priority 2010, dated 2014).

Assays:
Type in all cases: in vivo
[1] = test system: resistant strain red mite (Panonychus citri); assay: Miticidal activity against adults of red mite (resistant strain), leaf disk spray test; conditions: spray 2 mg/cm^2 on cinnamon leaf disks, female adults, two days after treatment; for Mortality (%): 6.25 ppm
Procedure: Miticidal Activity Against Adults of Red Mite (Resistant Strain) (Leaf Disk Spray Test)
0.5 mass % of agar was blended to water and put into a plastic cup having a capacity of 60 mL, and two cinnamon leaf disks were put thereon and ten female adults of resistant strain red mite (Panonychus citri) were inoculated and left to stand overnight at a constant temperature chamber at 25° C. (photoperiod conditions: light period of 16 hours/dark period of 8 hours). […] Upon expiration of two days after the treatment, the number of dead mites was counted, and the mortality was calculated by the formula 1. The test was carried out twice.

[2] = test system: susceptible strain two-spotted spider mite (Tetranychus urticae); assay: Miticidal activity against adults of two-spotted spider mite (susceptible strain), leaf disk spray test; conditions: foliar, 48 h, spray 2 mg/cm^2 on kidney bean leaf disks, female adults, two days after treatment
Procedure: Miticidal Activity Against Adults of Two-Spotted Spider Mite (Susceptible Strain) (Leaf Disk Spray Test)
A plastic cup having a capacity of 60 mL was half-filled with water, and a perforated cover was put thereon. Absorbent cotton was impregnated with water through the perforations, and two sheets of filter paper were overlaid thereon. Two leaves of kidney beans (Phaseolus vulgaris) cutout in a circular shape with a diameter of 2, cm, were put thereon, and ten female adults of susceptible strain two-spotted spider mite (Tetranychus urticae) were inoculated and left to stand overnight in a constant temperature chamber at 25° C. (photoperiod conditions: light period of 16 hours/dark period of 8 hours). […] Upon expiration of two days after the treatment, the number of dead mites was counted, and the mortality was calculated by the formula 1. The test was carried out twice.

[3] = test system: susceptible strain two-spotted spider mite (Tetranychus urticae); assay: Penetration/transfer activity against two-spotted spider mite (susceptible strain), soil irrigation cup test; conditions: 0.0031 mg a.i./seedling, soil drench 5 mL/seedling, soybean, live mites counted after 13 days
Procedure: Penetration/Transfer Activity Against Two-Spotted Spider Mite (Susceptible Strain) (Soil Irrigation Cup Test)
To soybean (Glycine max) planted in a plastic cup, 35 female adults of susceptible strain two-spotted spider mite (Tetranychus urticae) were inoculated and left to stand overnight at a constant temperature chamber at 25° C. (photoperiod conditions: light period of 16 hours/dark period of 8 hours). A test pesticide prepared by diluting the test compound formulated in accordance with Formulation Example 2 to a predetermined concentration as disclosed in Table 4, was applied by soil drench treatment (5 mL/seedling). Upon expiration of 13 days, the number of live mites was counted, and the preventive value was calculated by the formula 2. The test was carried out twice.

[4] = test system: resistant strain two-spotted spider mite (Tetranychus urticae); assay: Miticidal activity against adults of two-spotted spider mite (resistant strain), leaf disk spray test; conditions: spray 2 mg/cm^2 on kidney bean leaf disks, female adults, two days after treatment; for Mortality (%): 100 ppm
Procedure: Miticidal Activity Against Adults of Two-Spotted Spider Mite (Resistant Strain) (Leaf Disk Spray Test)
A plastic cup having a capacity of 60 mL was half-filled with water, and a perforated cover was put thereon. Absorbent cotton was impregnated with water through the perforations, and two sheets of filter paper were overlaid thereon. Two leaves of kidney beans (Phaseolus vulgaris) cutout in a circular shape with a diameter of 2 cm, were put thereon, and ten female adults of resistant strain two-spotted spider mite (Tetranychus urticae) were inoculated and left to stand overnight in a constant temperature chamber at 25° C. (photoperiod conditions: light period of 16 hours/dark period of 8 hours). After removing abnormal mites and dead mites, a pesticide prepared by diluting the test compound formulated in accordance with Formulation Example 2 with a diluent such as water, as shown in Table 2 was sprayed by an automatic spraying device (2 mg/cm^2). Upon expiration of two days after the treatment, the number of dead mites was counted, and the mortality was calculated by the formula 1. The test was carried out twice.

Compound | mortality at 6.25 ppm ([1]; Panonychus citri, foliar, 48 h) | mortality at 3.125 ppm [2] | Preventive value (%) [3] | mortality at 100 ppm ([4]; Tetranychus urticae, foliar, 48 h) | Mortality (%) [1] | Mortality (%) [4] | mortality at 6.25 ppm ([2]; 6.25 ppm)
Cc1cc(F)c(-n2nc(C(F)(F)F)nc2N)cc1[S+]([O-])CC(F)(F)F (racemic) [Compound No. II, 1-[2-fluoro-4-methyl-5-(2,2,2-trifluoroethylsulfinyl)phenyl]-5-amino-3-(trifluoromethyl)-1H-1,2,4-triazole, reference compound] | 36% | 8% | 0% | 16% |  |  | 
Cc1cc(F)c(-n2nc(C(F)(F)F)nc2N)cc1[S+]([O-])CC(F)(F)F (single isomer, unassigned; (+)) [Compound No. I, (+)-1-[2-fluoro-4-methyl-5-(2,2,2-trifluoroethylsulfinyl)phenyl]-5-amino-3-(trifluoromethyl)-1H-1,2,4-triazole] |  | 79% | 100% |  | 93% | 94% | 
Cc1cc(F)c(-n2nc(C(F)(F)F)nc2N)cc1[S+]([O-])CC(F)(F)F (single isomer, unassigned; (-)) [Compound No. III, (−)-1-[2-fluoro-4-methyl-5-(2,2,2-trifluoroethylsulfinyl)phenyl]-5-amino-3-(trifluoromethyl)-1H-1,2,4-triazole] |  |  | 0% |  | 0% | 0% | 0%
